Data as given in the NIST ThermoML archive (doi:10.1021/je700732u).

Legend:
[1] = mn = molality of the nth substance listed, in mol/kg; conditions: 298.15 K, 101 kPa, Liquid
[2] = cn = amount concentration of the nth substance listed, in mol/dm3; conditions: 298.15 K, 101 kPa, Liquid

OC[C@H]1O[C@@](CO)(O[C@H]2O[C@H](CO)[C@@H](O)[C@H](O)[C@H]2O)[C@@H](O)[C@@H]1O [D-sucrose] + O
[1]
Conditions | mass density [kg/m3] | viscosity [mPa·s]
m1 = 0.2 | 1022.17 | 1.064
m1 = 0.4 | 1045.26 | 1.277
m1 = 0.6 | 1066.44 | 1.533
m1 = 0.8 | 1086.04 | 1.843
m1 = 1 | 1104.2 | 2.241
m1 = 1.2 | 1121.03 | 2.638

O=S(=O)([O-])[O-].[Cu+2] [copper sulfate] + O
Conditions | mass density [kg/m3] | viscosity [mPa·s]
[1], m1 = 0.05 | 1005.22 | –
[1], m1 = 0.1 | 1013.29 | –
[1], m1 = 0.2 | 1029.16 | –
[1], m1 = 0.3 | 1044.87 | –
[1], m1 = 0.4 | 1060.4 | –
[1], m1 = 0.5 | 1075.78 | –
[2], c1 = 0.04986 | – | 0.9222
[2], c1 = 0.09974 | – | 0.9516
[2], c1 = 0.1995 | – | 1.013
[2], c1 = 0.2991 | – | 1.083
[2], c1 = 0.3987 | – | 1.147
[2], c1 = 0.4981 | – | 1.223

[Cl-].[Cl-].[Mg+2] [magnesium chloride] + O
[1]
Conditions | mass density [kg/m3]
m1 = 0.09998 | 1004.88
m1 = 0.2001 | 1012.54
m1 = 0.4002 | 1027.51
m1 = 0.5 | 1034.83

[Cl-].[Na+] [sodium chloride] + O
[1]
Conditions | mass density [kg/m3]
m1 = 0.04999 | 999.11
m1 = 0.09999 | 1001.16
m1 = 0.1999 | 1005.2
m1 = 0.2999 | 1009.2
m1 = 0.4002 | 1013.17

O=S(=O)([O-])[O-].[Mg+2] [magnesium sulfate] + O
Conditions | mass density [kg/m3] | viscosity [mPa·s]
[1], m1 = 0.05 | 1003.14 | –
[1], m1 = 0.1 | 1009.13 | –
[1], m1 = 0.2 | 1020.83 | –
[1], m1 = 0.3 | 1032.43 | –
[1], m1 = 0.4 | 1043.79 | –
[1], m1 = 0.5 | 1055.11 | –
[2], c1 = 0.04787 | – | 0.9216
[2], c1 = 0.09971 | – | 0.9527
[2], c1 = 0.1994 | – | 1.016
[2], c1 = 0.2989 | – | 1.083
[2], c1 = 0.3983 | – | 1.155
[2], c1 = 0.4976 | – | 1.234

O=S(=O)([O-])[O-].[Na+].[Na+] [sodium sulfate] + O
[1]
Conditions | mass density [kg/m3]
m1 = 0.09205 | 1008.69
m1 = 0.2001 | 1021.99
m1 = 0.3 | 1034.01
m1 = 0.3999 | 1045.81
m1 = 0.5001 | 1057.44

[Cl][Cu][Cl] [copper chloride] + O
[1]
Conditions | mass density [kg/m3]
m1 = 0.0498 | 1003.12
m1 = 0.09962 | 1009.1
m1 = 0.1992 | 1020.92
m1 = 0.2988 | 1032.58
m1 = 0.498 | 1055.47
